Test results from ChEMBL document CHEMBL3603758, “Geraniin inhibits TGF-β1-induced epithelial-mesenchymal transition and suppresses A549 lung cancer migration, invasion and anoikis resistance” (2015).
The source made the active and inactive calls. The calls are words filed in the database; no cut-off is given here.

How the values were obtained:
[1] = target: Mothers against decapentaplegic homolog 2 (Homo sapiens) (UniProt Q15796); experiment: Inhibition of TGFbeta1-induced Smad2 phosphorylation in human A549 cells at 15 and 20 uM pre-treated for 2 hrs before TGFbeta1 stimulation for 48 hrs by Western blot method; type: cell-based
A549 [2] = experiment: Antiproliferative activity against human A549 cells assessed as cell survival rate at 10 uM incubated for 48 hrs by CCK8 assay; type: functional; settings: A549, 48 h, read-out: Survival
A549 [3] = experiment: Inhibition of TGFbeta1-induced epithelial-mesenchymal transition in human A549 cells assessed as suppression of mesenchymal phenotype at 15 and 20 uM pre-treated for 2 hrs before TGFbeta1 stimulation for 48 hrs; type: functional, cell-based
A549 [4] = experiment: Inhibition of TGFbeta1-induced increase in vimentin expression in human A549 cells at 15 and 20 uM pre-treated for 2 hrs before TGFbeta1 stimulation for 48 hrs by Western blot method; type: functional, cell-based
A549 [5] = experiment: Inhibition of TGFbeta1-induced anoikis resistance in human A549 cells grown on poly-HEMA-coated tissue culture plates at 15 and 20 uM pre-treated for 2 hrs before TGFbeta1 stimulation for 48 hrs; type: functional, cell-based
A549 [6] = experiment: Inhibition of TGFbeta1-induced anoikis resistance in human A549 cells grown on poly-HEMA-coated tissue culture plates assessed reduction in cell proliferation at 15 and 20 uM pre-treated for 2 hrs before TGFbeta1 stimulation for 48 hrs by SRB assay; type: functional, cell-based
A549 [7] = experiment: Antiproliferative activity against human A549 cells assessed as inhibition of cell growth at 30 uM incubated for 48 hrs by CCK8 assay; type: functional, cell-based
A549 [8] = experiment: Inhibition of TGFbeta1-induced increase in N-cadherin expression in human A549 cells at 15 and 20 uM pre-treated for 2 hrs before TGFbeta1 stimulation for 48 hrs by Western blot method; type: functional, cell-based
A549 [9] = experiment: Antiproliferative activity against human A549 cells assessed as cell survival rate at 20 uM incubated for 48 hrs by CCK8 assay; type: functional; settings: A549, 48 h, read-out: Survival
A549 [10] = experiment: Inhibition of TGFbeta1-induced anoikis resistance in human A549 cells grown on poly-HEMA-coated tissue culture plates assessed reduction in PARP cleavage at 15 and 20 uM pre-treated for 2 hrs before TGFbeta1 stimulation for 48 hrs by Western blot method; type: functional, cell-based
A549 [11] = experiment: Antiproliferative activity against human A549 cells assessed as cell survival rate at 2.5 uM incubated for 48 hrs by CCK8 assay; type: functional; settings: A549, 48 h, read-out: Survival
A549 [12] = experiment: Antiproliferative activity against human A549 cells assessed as effect on cell proliferation at =< 30 uM incubated for 24 hrs by CCK8 assay; type: functional, cell-based
A549 [13] = experiment: Inhibition of TGFbeta1-induced cell invasion of human A549 cells at 15 and 20 uM incubated for 48 hrs by matrigel cell invasion assay; type: functional, cell-based
A549 [14] = experiment: Inhibition of TGFbeta1-induced reduction in E-cadherin expression in human A549 cells at 15 and 20 uM pre-treated for 2 hrs before TGFbeta1 stimulation for 48 hrs by Western blot method; type: functional, cell-based
A549 [15] = experiment: Inhibition of TGFbeta1-induced increase in Snail protein expression in human A549 cells at 15 and 20 uM pre-treated for 2 hrs before TGFbeta1 stimulation for 48 hrs by Western blot method; type: functional, cell-based
A549 [16] = experiment: Antiproliferative activity against human A549 cells assessed as cell survival rate at 15 uM incubated for 48 hrs by CCK8 assay; type: functional; settings: A549, 48 h, read-out: Survival
A549 [17] = experiment: Inhibition of TGFbeta1-induced increase in Snail gene expression in human A549 cells at 15 and 20 uM pre-treated for 2 hrs before TGFbeta1 stimulation for 48 hrs by qRT-PCR method; type: functional, cell-based
A549 [18] = experiment: Inhibition of TGFbeta1-induced cell migration of human A549 cells at 15 and 20 uM incubated for 48 hrs by wound healing assay; type: functional, cell-based
A549 [19] = experiment: Inhibition of TGFbeta1-induced reduction in E-cadherin expression in human A549 cells assessed as suppresion of mesenchymal phenotype at 15 and 20 uM pre-treated for 2 hrs before TGFbeta1 stimulation for 48 hrs by Western blot method; type: functional, cell-based
A549 [20] = experiment: Antiproliferative activity against human A549 cells assessed as cell survival rate at 5 uM incubated for 48 hrs by CCK8 assay; type: functional; settings: A549, 48 h, read-out: Survival

Sequence of Mothers against decapentaplegic homolog 2 (Homo sapiens) (Q15796 whole entry): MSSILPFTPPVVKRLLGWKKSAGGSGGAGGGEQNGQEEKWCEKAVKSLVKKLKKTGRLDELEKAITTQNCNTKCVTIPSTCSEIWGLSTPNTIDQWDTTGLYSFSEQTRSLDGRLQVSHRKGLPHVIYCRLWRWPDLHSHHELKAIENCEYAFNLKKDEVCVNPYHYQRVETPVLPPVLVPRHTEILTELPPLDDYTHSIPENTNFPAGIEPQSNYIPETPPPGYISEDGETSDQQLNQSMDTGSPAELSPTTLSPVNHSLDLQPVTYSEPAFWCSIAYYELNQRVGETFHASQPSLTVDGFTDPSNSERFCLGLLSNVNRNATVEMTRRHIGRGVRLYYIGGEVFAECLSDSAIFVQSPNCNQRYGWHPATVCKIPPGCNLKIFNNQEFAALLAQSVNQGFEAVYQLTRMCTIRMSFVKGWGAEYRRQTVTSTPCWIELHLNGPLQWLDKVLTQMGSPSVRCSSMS

Compound: O=C1O[C@H]2[C@@H]3OC(=O)c4cc(O)c(O)c(O)c4-c4c(cc(O)c(O)c4O)C(=O)OC[C@H]2O[C@@H](OC(=O)c2cc(O)c(O)c(O)c2)[C@@H]3OC(=O)c2cc(O)c(O)c3c2[C@@H]2C1=CC(=O)[C@](O)(O3)C2(O)O [GERANIIN]
- inhibition [1]: Active
- viability at 10 µM (A549 [2]): > 90%
- inhibition (A549 [3]): Active
- inhibition (A549 [4]): Active
- inhibition (A549 [5]): Active
- inhibition (A549 [6]): Dose-dependent effect
- growth inhibition (GI) (A549 [7]): Active
- inhibition (A549 [8]): Active
- viability at 20 µM (A549 [9]): > 90%
- inhibition (A549 [10]): Active
- viability at 2.5 µM (A549 [11]): > 90%
- Activity (A549 [12]): inactive
- inhibition (A549 [13]): Active
- inhibition (A549 [14]): Active
- inhibition (A549 [15]): Dose-dependent effect
- viability at 15 µM (A549 [16]): > 90%
- inhibition (A549 [17]): Dose-dependent effect
- inhibition (A549 [18]): Dose-dependent effect
- inhibition (A549 [19]): Active
- viability at 5 µM (A549 [20]): > 90%
